Test results published in patent US9770409B2, “Aerosol formulations of ondansetron and uses thereof” (LUXENA PHARMACEUTICALS, INC., priority 2013, dated 2017).
In brackets after ≈: the same amount, converted by molar mass. Several values for one entry are separate records, joined by “and”; a condition that tells them apart may be missing. Equal values may be shown once. Read-outs that look alike come from different tables or passages of the source.

What was measured:
[1] = Solubility of ondansetron in pMDI medium; format: physicochemical; details: for solubility at 8 days: organic solvent or mixture, thermodynamic from solid
Protocol: The solubility of ondansetron was measured in a pMDI medium of HFA 134 as well as a mixture of HFA 134 and ethanol.

[2] = Particle size distribution of spray dried ondansetron fine powder by Malvern Mastersizer; format: physicochemical; details: typical particle size distribution
Protocol: The Particle Size Distribution of the Ondansetron Fine Powder, prepared by Spray Drying using the above parameters was measured by Malvern Mastersizer (Malvern Instruments, UK) at GEA Process Engineering, Inc., Columbia, Md., USA.

[3] = HFA 134a with Ethanol (9:1), 8 days

| solubility at 8 days ([1]; HFA 134a (pMDI medium), HFA 134a alone, read-out: Solubility in HFA 134a, Average (RSD)) | solubility at 8 days ([1]; HFA 134a (pMDI medium), HFA 134a alone, read-out: Solubility in HFA 134a, single determinations) | Solubility in HFA 134a as % w/w ([1]; HFA 134a alone, 8 days, from gravity of HFA 134a 1.21 g/mL) | Solubility in HFA 134a with Ethanol (9:1) as % w/w [1, 3] | solubility at 8 days ([1]; HFA 134a with ethanol (9:1) (pMDI medium), HFA 134a with Ethanol (9:1), read-out: Solubility in HFA 134a with Ethanol (9:1), Average (RSD)) | solubility at 8 days ([1]; HFA 134a with ethanol (9:1) (pMDI medium), HFA 134a with Ethanol (9:1), read-out: Solubility in HFA 134a with Ethanol (9:1), single determinations) | Cumulative % on <10 μm [2] | D10 [2] | D50 [2] | D90 [2] | Mean Size [2] | SMILES | Solubility in HFA 134a, single determinations ([1]; HFA 134a alone, 8 days) | Solubility in HFA 134a with Ethanol (9:1), single determinations [1, 3] |
| --- | --- | --- | --- | --- | --- | --- | --- | --- | --- | --- | --- | --- | --- |
| 37.8 µg/mL (≈ 129 µM) | 34.7 µg/mL (≈ 118 µM) | 0.00312 % w/w | 0.01668 % w/w | 202 µg/mL (≈ 688 µM) | 199 µg/mL (≈ 680 µM) |  |  |  |  |  | Cc1nccn1CC1CCc2c(c3ccccc3n2C)C1=O (stereo not shown) [ondansetron] | 35.97 µg/mL and 40.27 µg/mL and 40.26 µg/mL | 196.85 µg/mL and 215.75 µg/mL and 195.17 µg/mL |
|  |  |  |  |  |  | 99.5% | 3.23 μm | 5.01 μm | 7.22 μm | 4.80 μm | Cc1nccn1CC1CCc2c(c3ccccc3n2C)C1=O (stereo not shown) [Ondansetron Fine Powder, ondansetron] |  |  |
